# Tested on: Lolium perenne (LOLPE)
# Test: B1 pre-emergence herbicidal activity
# Format: in vivo
# Conditions: Test 1b, rate 1000 g/ha, evaluated after 13 days, scale 5=total damage to plant, 0=no damage to plant
# Method: (§1) Seeds of a variety of test species were sown in standard soil in pots: Triticum aestivium (TRZAW), Avena fatua (AVEFA), Alopecurus myosuroides (ALOMY), Echinochloa crus-galli (ECHCG), Lolium perenne (LOLPE), Zea Mays (ZEAMX), Abutilon theophrasti (ABUTH), Amaranthus retroflexus (AMARE) and Setaria faberi (SETFA). After cultivation for one day (pre-emergence) under controlled conditions in a glasshouse (at 24/16° C., day/night; 14 hours light; 65% humidity), the plants were sprayed with an aqueous spray solution derived from the formulation of the technical active ingredient in acetone/water (50:50) solution containing 0.5% Tween 20 (polyoxyethelyene sorbitan monolaurate, CAS RN 9005-64-5). The test plants were then grown in a glasshouse under controlled conditions (at 24/16° C., day/night; 14 hours light; 65% humidity) and watered twice daily. After 13 days, the test was evaluated (5=total damage to plant; 0=no damage to plant).
row,SMILES,"Control after pre-emergence application, damage score: LOLPE"
1,"Cc1nc(-c2cncnc2)ncc1N [Compound D3, 4-methyl-2-pyrimidin-5-yl-pyrimidin-5-amine]",1
2,CNc1cnc(-c2cncnc2)nc1C [Compound D4],1
3,"Nc1cnc(-c2cncc(F)c2)nc1C(F)(F)F [Compound D5, 2-(5-fluoro-3-pyridyl)-4-(trifluoromethyl)pyrimidin-5-amine]",1
4,CNc1cnc(-c2cncc(F)c2)nc1C(F)(F)F [Compound D6],1
5,C=CCNc1cnc(-c2cncnc2)nc1C [Compound D7],1

# Tested on: Avena fatua (AVEFA)
# Test: B1 pre-emergence herbicidal activity
# Format: in vivo
# Conditions: Test 1b, rate 1000 g/ha, evaluated after 13 days, scale 5=total damage to plant, 0=no damage to plant
# Method: as §1
row,SMILES,"Control after pre-emergence application, damage score: AVEFA"
1,"Cc1nc(-c2cncnc2)ncc1N [Compound D3, 4-methyl-2-pyrimidin-5-yl-pyrimidin-5-amine]",0
2,CNc1cnc(-c2cncnc2)nc1C [Compound D4],0
3,"Nc1cnc(-c2cncc(F)c2)nc1C(F)(F)F [Compound D5, 2-(5-fluoro-3-pyridyl)-4-(trifluoromethyl)pyrimidin-5-amine]",4
4,CNc1cnc(-c2cncc(F)c2)nc1C(F)(F)F [Compound D6],1
5,C=CCNc1cnc(-c2cncnc2)nc1C [Compound D7],1

# Tested on: Triticum aestivium (TRZAW)
# Test: B1 pre-emergence herbicidal activity
# Format: in vivo
# Conditions: Test 1b, rate 1000 g/ha, evaluated after 13 days, scale 5=total damage to plant, 0=no damage to plant
# Method: as §1
row,SMILES,"Control after pre-emergence application, damage score: TRAZW"
1,"Cc1nc(-c2cncnc2)ncc1N [Compound D3, 4-methyl-2-pyrimidin-5-yl-pyrimidin-5-amine]",0
2,CNc1cnc(-c2cncnc2)nc1C [Compound D4],0
3,"Nc1cnc(-c2cncc(F)c2)nc1C(F)(F)F [Compound D5, 2-(5-fluoro-3-pyridyl)-4-(trifluoromethyl)pyrimidin-5-amine]",0
4,CNc1cnc(-c2cncc(F)c2)nc1C(F)(F)F [Compound D6],0
5,C=CCNc1cnc(-c2cncnc2)nc1C [Compound D7],0

# Tested on: Setaria faberi (SETFA)
# Test: B1 pre-emergence herbicidal activity
# Format: in vivo
# Conditions: Test 1b, rate 1000 g/ha, evaluated after 13 days, scale 5=total damage to plant, 0=no damage to plant
# Method: as §1
row,SMILES,"Control after pre-emergence application, damage score: SETFA"
1,"Cc1nc(-c2cncnc2)ncc1N [Compound D3, 4-methyl-2-pyrimidin-5-yl-pyrimidin-5-amine]",2
2,CNc1cnc(-c2cncnc2)nc1C [Compound D4],2
3,"Nc1cnc(-c2cncc(F)c2)nc1C(F)(F)F [Compound D5, 2-(5-fluoro-3-pyridyl)-4-(trifluoromethyl)pyrimidin-5-amine]",5
4,CNc1cnc(-c2cncc(F)c2)nc1C(F)(F)F [Compound D6],4
5,C=CCNc1cnc(-c2cncnc2)nc1C [Compound D7],4

# Tested on: Alopecurus myosuroides (ALOMY)
# Test: B1 pre-emergence herbicidal activity
# Format: in vivo
# Conditions: Test 1b, rate 1000 g/ha, evaluated after 13 days, scale 5=total damage to plant, 0=no damage to plant
# Method: as §1
row,SMILES,"Control after pre-emergence application, damage score: ALOMY"
1,"Cc1nc(-c2cncnc2)ncc1N [Compound D3, 4-methyl-2-pyrimidin-5-yl-pyrimidin-5-amine]",0
2,CNc1cnc(-c2cncnc2)nc1C [Compound D4],0
3,"Nc1cnc(-c2cncc(F)c2)nc1C(F)(F)F [Compound D5, 2-(5-fluoro-3-pyridyl)-4-(trifluoromethyl)pyrimidin-5-amine]",1
4,CNc1cnc(-c2cncc(F)c2)nc1C(F)(F)F [Compound D6],0
5,C=CCNc1cnc(-c2cncnc2)nc1C [Compound D7],0

# Tested on: Echinochloa crus-galli (ECHCG)
# Test: B1 pre-emergence herbicidal activity
# Format: in vivo
# Conditions: Test 1b, rate 1000 g/ha, evaluated after 13 days, scale 5=total damage to plant, 0=no damage to plant
# Method: as §1
row,SMILES,"Control after pre-emergence application, damage score: ECHCG"
1,"Cc1nc(-c2cncnc2)ncc1N [Compound D3, 4-methyl-2-pyrimidin-5-yl-pyrimidin-5-amine]",1
2,CNc1cnc(-c2cncnc2)nc1C [Compound D4],0
3,"Nc1cnc(-c2cncc(F)c2)nc1C(F)(F)F [Compound D5, 2-(5-fluoro-3-pyridyl)-4-(trifluoromethyl)pyrimidin-5-amine]",4
4,CNc1cnc(-c2cncc(F)c2)nc1C(F)(F)F [Compound D6],4
5,C=CCNc1cnc(-c2cncnc2)nc1C [Compound D7],2

# Tested on: Lolium perenne (LOLPE)
# Test: B2 post-emergence herbicidal activity
# Format: in vivo
# Conditions: Test B2b; post-emergence (sprayed after 8 days cultivation); rate 1000 g/ha; evaluated after 13 days; scale 5=total damage to plant, 0=no damage to plant
# Method: (§2) Seeds of a variety of test species were sown in standard soil in pots: Triticum aestivium (TRZAW), Avena fatua (AVEFA), Alopecurus myosuroides (ALOMY), Echinochloa crus-galli (ECHCG), Lolium perenne (LOLPE), Zea Mays (ZEAMX), Abutilon theophrasti (ABUTH), Amaranthus retroflexus (AMARE) and Setaria faberi (SETFA). After 8 days cultivation (post-emergence) under controlled conditions in a glasshouse (at 24/16° C., day/night; 14 hours light; 65% humidity), the plants were sprayed with an aqueous spray solution derived from the formulation of the technical active ingredient in acetone/water (50:50) solution containing 0.5% Tween 20 (polyoxyethelyene sorbitan monolaurate, CAS RN 9005-64-5). The test plants were then grown in a glasshouse under controlled conditions (at 24/16° C., day/night; 14 hours light; 65% humidity) and watered twice daily. After 13 days, the test was evaluated (5=total damage to plant; 0=no damage to plant).
row,SMILES,"Control after post-emergence application, damage score: LOLPE"
1,"Cc1nc(-c2cncnc2)ncc1N [Compound D3, 4-methyl-2-pyrimidin-5-yl-pyrimidin-5-amine]",1
2,CNc1cnc(-c2cncnc2)nc1C [Compound D4],1
3,"Nc1cnc(-c2cncc(F)c2)nc1C(F)(F)F [Compound D5, 2-(5-fluoro-3-pyridyl)-4-(trifluoromethyl)pyrimidin-5-amine]",3
4,CNc1cnc(-c2cncc(F)c2)nc1C(F)(F)F [Compound D6],3
5,C=CCNc1cnc(-c2cncnc2)nc1C [Compound D7],0

# Tested on: Avena fatua (AVEFA)
# Test: B2 post-emergence herbicidal activity
# Format: in vivo
# Conditions: Test B2b; post-emergence (sprayed after 8 days cultivation); rate 1000 g/ha; evaluated after 13 days; scale 5=total damage to plant, 0=no damage to plant
# Method: as §2
row,SMILES,"Control after post-emergence application, damage score: AVEFA"
1,"Cc1nc(-c2cncnc2)ncc1N [Compound D3, 4-methyl-2-pyrimidin-5-yl-pyrimidin-5-amine]",1
2,CNc1cnc(-c2cncnc2)nc1C [Compound D4],0
3,"Nc1cnc(-c2cncc(F)c2)nc1C(F)(F)F [Compound D5, 2-(5-fluoro-3-pyridyl)-4-(trifluoromethyl)pyrimidin-5-amine]",4
4,CNc1cnc(-c2cncc(F)c2)nc1C(F)(F)F [Compound D6],2
5,C=CCNc1cnc(-c2cncnc2)nc1C [Compound D7],1

# Tested on: Triticum aestivium (TRZAW)
# Test: B2 post-emergence herbicidal activity
# Format: in vivo
# Conditions: Test B2b; post-emergence (sprayed after 8 days cultivation); rate 1000 g/ha; evaluated after 13 days; scale 5=total damage to plant, 0=no damage to plant
# Method: as §2
row,SMILES,"Control after post-emergence application, damage score: TRAZW"
1,"Cc1nc(-c2cncnc2)ncc1N [Compound D3, 4-methyl-2-pyrimidin-5-yl-pyrimidin-5-amine]",0
2,CNc1cnc(-c2cncnc2)nc1C [Compound D4],0
3,"Nc1cnc(-c2cncc(F)c2)nc1C(F)(F)F [Compound D5, 2-(5-fluoro-3-pyridyl)-4-(trifluoromethyl)pyrimidin-5-amine]",1
4,CNc1cnc(-c2cncc(F)c2)nc1C(F)(F)F [Compound D6],1
5,C=CCNc1cnc(-c2cncnc2)nc1C [Compound D7],1

# Tested on: Setaria faberi (SETFA)
# Test: B2 post-emergence herbicidal activity
# Format: in vivo
# Conditions: Test B2b; post-emergence (sprayed after 8 days cultivation); rate 1000 g/ha; evaluated after 13 days; scale 5=total damage to plant, 0=no damage to plant
# Method: as §2
row,SMILES,"Control after post-emergence application, damage score: SETFA"
1,"Cc1nc(-c2cncnc2)ncc1N [Compound D3, 4-methyl-2-pyrimidin-5-yl-pyrimidin-5-amine]",3
2,CNc1cnc(-c2cncnc2)nc1C [Compound D4],1
3,"Nc1cnc(-c2cncc(F)c2)nc1C(F)(F)F [Compound D5, 2-(5-fluoro-3-pyridyl)-4-(trifluoromethyl)pyrimidin-5-amine]",5
4,CNc1cnc(-c2cncc(F)c2)nc1C(F)(F)F [Compound D6],5
5,C=CCNc1cnc(-c2cncnc2)nc1C [Compound D7],4

# Tested on: Alopecurus myosuroides (ALOMY)
# Test: B2 post-emergence herbicidal activity
# Format: in vivo
# Conditions: Test B2b; post-emergence (sprayed after 8 days cultivation); rate 1000 g/ha; evaluated after 13 days; scale 5=total damage to plant, 0=no damage to plant
# Method: as §2
row,SMILES,"Control after post-emergence application, damage score: ALOMY"
1,"Cc1nc(-c2cncnc2)ncc1N [Compound D3, 4-methyl-2-pyrimidin-5-yl-pyrimidin-5-amine]",1
2,CNc1cnc(-c2cncnc2)nc1C [Compound D4],1
3,"Nc1cnc(-c2cncc(F)c2)nc1C(F)(F)F [Compound D5, 2-(5-fluoro-3-pyridyl)-4-(trifluoromethyl)pyrimidin-5-amine]",1
4,CNc1cnc(-c2cncc(F)c2)nc1C(F)(F)F [Compound D6],0
5,C=CCNc1cnc(-c2cncnc2)nc1C [Compound D7],0

# Tested on: Echinochloa crus-galli (ECHCG)
# Test: B2 post-emergence herbicidal activity
# Format: in vivo
# Conditions: Test B2b; post-emergence (sprayed after 8 days cultivation); rate 1000 g/ha; evaluated after 13 days; scale 5=total damage to plant, 0=no damage to plant
# Method: as §2
row,SMILES,"Control after post-emergence application, damage score: ECHCG"
1,"Cc1nc(-c2cncnc2)ncc1N [Compound D3, 4-methyl-2-pyrimidin-5-yl-pyrimidin-5-amine]",2
2,CNc1cnc(-c2cncnc2)nc1C [Compound D4],1
3,"Nc1cnc(-c2cncc(F)c2)nc1C(F)(F)F [Compound D5, 2-(5-fluoro-3-pyridyl)-4-(trifluoromethyl)pyrimidin-5-amine]",4
4,CNc1cnc(-c2cncc(F)c2)nc1C(F)(F)F [Compound D6],5
5,C=CCNc1cnc(-c2cncnc2)nc1C [Compound D7],2

# Source: patent US11672251B2, “Herbicidally active pyridyl-/pyrimidyl-pyrimidine derivatives” (Syngenta Participations AG, priority 2017, dated 2023)
